Reference: patent publication US20100267561A1, “HERBICIDAL PYRIDAZINONE DERIVATIVES” (priority 2007, published 2010)

Experiments:
Type in all cases: in vivo
rice (Oryza sativa) = assay: Test B flooded paddy test plant response
Procedure, shortened: (§1)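 Compounds were added directly to paddy water over 2-leaf-stage plants in pots flooded 3 cm above soil, water depth maintained. Visual injury scored against controls after 13 to 15 days in greenhouse, 0 (none) to 100 (complete control); dash indicates no result.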

[1] = tested on: umbrella sedge (Cyperus difformis); assay: Test B flooded paddy test plant response
Procedure, shortened: as §1

[2] = tested on: ducksalad (Heteranthera limosa); assay: Test B flooded paddy test plant response
Procedure, shortened: as §1

[3] = tested on: annual bluegrass (Poa annua); assay: Test C pre-/postemergence plant response; details: Preemergence
Description: (§2) Seeds of plant species selected from annual bluegrass (Poa annua), blackgrass (Alopecurus myosuroides), canola (Brassica rapa), downy bromegrass (Bromus tectorum), green foxtail (Setaria viridis), Italian ryegrass (Lolium multiflorum), canarygrass (Phalaris minor), pigweed (Amaranthus retroflexus), spring barley (Hordeum vulgare), spring wheat (Triticum aestivum), wild mustard (Sinapis arvensis), wild oat (Avena fatua), windgrass (Apera spica-venti), winter barley (Hordeum vulgare), and winter wheat (Triticum aestivum) were planted and treated preemergence with test chemicals formulated in a non-phytotoxic solvent mixture which included a surfactant. At the same time, plants selected from these crop and weed species were treated with postemergence applications of some of the test chemicals formulated in the same manner. Plants ranged in height from 2 to 18 cm (1- to 4-leaf stage) for postemergence treatments.
(§3) Treated plants and controls were maintained in a controlled growth environment for 15 to 25 days after which time all species were compared to controls and visually evaluated. Plant response ratings, summarized in Table C, are based on a scale of 0 to 100 where 0 is no effect and 100 is complete control. A dash (-) response means no test result.

[4] = tested on: pigweed (Amaranthus retroflexus); assay: Test C pre-/postemergence plant response; details: Preemergence
Description: as §2, §3

[5] = tested on: blackgrass (Alopecurus myosuroides); assay: Test C pre-/postemergence plant response; details: Preemergence
Description: as §2, §3

[6] = tested on: green foxtail (Setaria viridis); assay: Test C pre-/postemergence plant response; details: Preemergence
Description: as §2, §3

wild oat (Avena fatua) = assay: Test C pre-/postemergence plant response; details: Preemergence
Description: as §2, §3

[7] = tested on: winter barley (Hordeum vulgare); assay: Test C pre-/postemergence plant response; details: Preemergence
Description: as §2, §3

[8] = tested on: downy bromegrass (Bromus tectorum); assay: Test C pre-/postemergence plant response; details: Preemergence
Description: as §2, §3

[9] = tested on: spring barley (Hordeum vulgare); assay: Test C pre-/postemergence plant response; details: Preemergence
Description: as §2, §3

[10] = tested on: spring wheat (Triticum aestivum); assay: Test C pre-/postemergence plant response; details: Preemergence
Description: as §2, §3

[11] = tested on: winter wheat (Triticum aestivum); assay: Test C pre-/postemergence plant response; details: Preemergence
Description: as §2, §3

[12] = tested on: windgrass (Apera spica-venti); assay: Test C pre-/postemergence plant response; details: Preemergence
Description: as §2, §3

[13] = tested on: Italian ryegrass (Lolium multiflorum); assay: Test C pre-/postemergence plant response; details: Preemergence
Description: as §2, §3

[14] = tested on: canarygrass (Phalaris minor); assay: Test C pre-/postemergence plant response; details: Preemergence
Description: as §2, §3

[15] = Flood (flooded paddy test), 62 g ai/ha, scale 0 to 100, 0 no effect, 100 complete control
[16] = Flood (flooded paddy test), 125 g ai/ha, scale 0 to 100, 0 no effect, 100 complete control
[17] = Flood (flooded paddy test), 250 g ai/ha, scale 0 to 100, 0 no effect, 100 complete control
[18] = Flood, 31 g ai/ha, scale 0 to 100
[19] = 8 g ai/ha, scale 0 to 100 (0 no effect, 100 complete control)
[20] = 16 g ai/ha, scale 0 to 100 (0 no effect, 100 complete control)
[21] = 31 g ai/ha, scale 0 to 100 (0 no effect, 100 complete control)
[22] = 62 g ai/ha, scale 0 to 100, 0 no effect, 100 complete control

## COC(=O)Oc1cnn(C)c(=O)c1-n1nc(-c2ccc(Cl)cc2)cc1C [Compound 33]
Rice (Oryza sativa); [15]
  Plant response rating, Rice: 65
Rice (Oryza sativa); [16]
  Plant response rating, Rice: 75
Rice (Oryza sativa); [17]
  Plant response rating, Rice: 80
Rice (Oryza sativa); [18]
  Plant response rating, Rice: 30
[1]; [15]
  Plant response rating, Sedge, Umbrella: 20
[1]; [16]
  Plant response rating, Sedge, Umbrella: 35
[1]; [17]
  Plant response rating, Sedge, Umbrella: 60
[1]; [18]
  Plant response rating, Sedge, Umbrella: 0
[2]; [15]
  Plant response rating, Ducksalad: 0
[2]; [16]
  Plant response rating, Ducksalad: 40
[2]; [17]
  Plant response rating, Ducksalad: 50
[2]; [18]
  Plant response rating, Ducksalad: 0
[3]; [19]
  Plant response rating, Bluegrass: 0
[3]; [20]
  Plant response rating, Bluegrass: 0
[3]; [21]
  Plant response rating, Bluegrass: 0
[3]; [22]
  Plant response rating, Bluegrass: 0
[4]; [20]
  Plant response rating, Pigweed: 0
[4]; [21]
  Plant response rating, Pigweed: 0
[4]; [22]
  Plant response rating, Pigweed: 0
[5]; [19]
  Plant response rating, Blackgrass: 0
[5]; [20]
  Plant response rating, Blackgrass: 50
[5]; [21]
  Plant response rating, Blackgrass: 80
[5]; [22]
  Plant response rating, Blackgrass: 100
[6]; [19]
  Plant response rating, Foxtail, Green: 15
[6]; [20]
  Plant response rating, Foxtail, Green: 95
[6]; [21]
  Plant response rating, Foxtail, Green: 100
[6]; [22]
  Plant response rating, Foxtail, Green: 100
Wild oat (Avena fatua); [19]
  Plant response rating, Oat, Wild: 0
Wild oat (Avena fatua); [20]
  Plant response rating, Oat, Wild: 25
Wild oat (Avena fatua); [21]
  Plant response rating, Oat, Wild: 60
Wild oat (Avena fatua); [22]
  Plant response rating, Oat, Wild: 75
[7]; [19]
  Plant response rating, Barley, Winter: 0
[7]; [20]
  Plant response rating, Barley, Winter: 0
[7]; [21]
  Plant response rating, Barley, Winter: 0
[7]; [22]
  Plant response rating, Barley, Winter: 20
[8]; [19]
  Plant response rating, Bromegrass, Downy: 0
[8]; [20]
  Plant response rating, Bromegrass, Downy: 35
[8]; [21]
  Plant response rating, Bromegrass, Downy: 35
[8]; [22]
  Plant response rating, Bromegrass, Downy: 60
[9]; [19]
  Plant response rating, Barley, Spring: 0
[9]; [20]
  Plant response rating, Barley, Spring: 0
[9]; [21]
  Plant response rating, Barley, Spring: 10
[9]; [22]
  Plant response rating, Barley, Spring: 25
[10]; [19]
  Plant response rating, Wheat, Spring: 0
[10]; [20]
  Plant response rating, Wheat, Spring: 0
[10]; [21]
  Plant response rating, Wheat, Spring: 20
[10]; [22]
  Plant response rating, Wheat, Spring: 50
[11]; [19]
  Plant response rating, Wheat, Winter: 0
[11]; [20]
  Plant response rating, Wheat, Winter: 0
[11]; [21]
  Plant response rating, Wheat, Winter: 15
[11]; [22]
  Plant response rating, Wheat, Winter: 40
[12]; [19]
  Plant response rating, Windgrass: 0
[12]; [20]
  Plant response rating, Windgrass: 0
[12]; [22]
  Plant response rating, Windgrass: 50
[13]; [19]
  Plant response rating, Ryegrass, Italian: 10
[13]; [20]
  Plant response rating, Ryegrass, Italian: 65
[13]; [21]
  Plant response rating, Ryegrass, Italian: 100
[13]; [22]
  Plant response rating, Ryegrass, Italian: 100
[14]; [19]
  Plant response rating, Canarygrass: 0
[14]; [20]
  Plant response rating, Canarygrass: 10
[14]; [21]
  Plant response rating, Canarygrass: 65
[14]; [22]
  Plant response rating, Canarygrass: 90

## Cn1ncc(O)c(-c2nn(-c3ccc(Cl)cc3)cc2Br)c1=O [Compound 31]
Rice (Oryza sativa); [15]
  Plant response rating, Rice: 0
Rice (Oryza sativa); [16]
  Plant response rating, Rice: 0
Rice (Oryza sativa); [17]
  Plant response rating, Rice: 0
Rice (Oryza sativa); [18]
  Plant response rating, Rice: 0
[1]; [15]
  Plant response rating, Sedge, Umbrella: 0
[1]; [16]
  Plant response rating, Sedge, Umbrella: 0
[1]; [17]
  Plant response rating, Sedge, Umbrella: 0
[1]; [18]
  Plant response rating, Sedge, Umbrella: 0
[2]; [15]
  Plant response rating, Ducksalad: 0
[2]; [16]
  Plant response rating, Ducksalad: 0
[2]; [17]
  Plant response rating, Ducksalad: 0
[2]; [18]
  Plant response rating, Ducksalad: 0
